We go through six compounds from PMC11217349, “Development of Nurr1 agonists from amodiaquine by scaffold hopping and fragment growing” (Communications Chemistry, 2024).

A short description of data set [1]: Parallel artificial membrane permeability assay (PAMPA). The data set is classed as in vitro ADME. To be noted: 500 µM donor, pH 7.4, 18 h. The protocol:
Passive lipid membrane diffusion of test compounds was determined using Merck Millipore MultiScreen Filter Plates (0.45 μm pore diameter, hydrophobic PVDF). The filter inserts were coated with 1% L-α-phosphatidylcholine (Fluka Analytical) in n-dodecan. The test compounds were then added to the donor compartment at a final concentration of 500 µM in a phosphate buffer pH 7.4 containing 5% DMSO with a total volume of 150 µL. The acceptor compartment was filled with 300 µL PBS containing 5% DMSO. Additionally, three equilibrium samples were prepared by directly adding the donor solution to the acceptor compartment for the calculation of log Pe values. The filter plates were incubated for 18 h before the test compound concentrations in the acceptor compartments and in the equilibrium, samples were determined by UV absorbance at 320 nm (34), 360 nm (36), 310 nm (41), or 315 nm (42) with external calibration in a 96 well quartz plate on a SpectraMax M2e microplate reader (Molecular Devices). logPe values were calculated according to the formula published by Sugano and colleagues.

Data set [2] concerns HBEC-5i human brain endothelial cells. In words: In vitro blood-brain-barrier model. Format: in vitro ADME. To be noted: HBEC-5i trans-well, 10 µM, 60 min. As for the experimental part: Permeation of test compounds through a human brain endothelial cell barrier was evaluated using the Corning Costar 3470 Transwell Plate system (0.4 μm pore diameter with 6.5 mm inserts) and HBEC-5i cells (ATCC, CRL-3245). Filter inserts were coated one day before seeding with 50 μL 0.01% rat-tail collagen type I ([…], Sigma-Aldrich) in PBS. 60,000 HBEC-5i cells in 100 μL HBEC-5i-Medium (DMEM/F12 with 10% FCS and 40 μg/mL ECGS) were seeded after aspiration of the coating-supernatant in each insert with 600 μL HBEC-5i-Medium in each receiver well. After 24 h incubation at 37 °C with 5% CO2, the medium was exchanged to 600 μL T98G cell supernatant in receiver wells and 100 μL fresh HBEC-5i-Medium in inserts. The medium exchange was repeated every second day. On day 7 after seeding, the medium in the receiver wells was replaced by 600 μL Hank's balanced salt solution (HBSS) containing 10 mM HEPES and 0.1% DMSO and 100 μL test compound mixtures (antipyrine and test compound; each at 10 μM) in HBSS containing 10 mM HEPES and 0.1% DMSO were added to inserts. After 60 min incubation, 100 μL samples were taken from the receiver wells and diluted in 400 μL (75%/25% A/B; A=Formic acid 0.1% in water; B = Acetonitrile). Test compound concentrations in the samples were determined by LC-MS/MS on an API-3200-QTrap (Sciex) equipped with an Agilent Technologies 1100 series setup including a binary pump […]), and a Shimadzu […] autosampler under the control of Analyst 1.6 (Sciex). […] B) for 6 min going to (50%:50%) after 8 min. 5 μL of aspirated supernatant diluted in mobile phase starting conditions was loaded onto the column, separated at a flow rate of 400 μL/min, and quantified per Area of MRM (multiple reaction monitoring).

Data set [3] has as its target T1, human Nurr1 (hinge region and ligand binding domain) (Homo sapiens, UniProt P43354).
T1 construct: expressed in transfected cells; host or cells: HEK293T
The experiment in a line: Gal4-Nurr1 hybrid reporter gene assay. Format: cell-based. To be noted: mean ± SD, n ≥ 3; for EC50: Gal4-Nurr1 hybrid reporter, HEK293T, read-out: EC50(Nurr1); for max. activation: maximum effect vs. 0.1% DMSO control. The protocol:
Nurr1 modulation was determined in a Gal4 hybrid reporter gene assay in HEK293T cells (German Collection of Microorganisms and Cell Culture GmbH, DSMZ) using pFR-Luc (Stratagene, La Jolla, CA, USA; reporter), pRL-SV40 (Promega, Madison, WI, USA; internal control) and pFA-CMV-hNurr1-LBD[14], coding for the hinge region and ligand binding domain of the canonical isoform of human Nurr1. […] After 24 h, the medium was changed to Opti-MEM without supplements, and cells were transiently transfected using Lipofectamine LTX reagent (Invitrogen, Carlsbad, CA, USA) according to the manufacturer’s protocol. Five hours after transfection, cells were incubated with the test compounds in Opti-MEM supplemented with penicillin (100 U/mL), streptomycin (100 μg/mL), and 0.1% DMSO for 16 h before luciferase activity was measured using the Dual-Glo Luciferase Assay System (Promega) according to the manufacturer’s protocol on a Tecan Spark luminometer (Tecan Deutschland GmbH, Crailsheim, Germany). Firefly luminescence was divided by Renilla luminescence and multiplied by 1000 resulting in relative light units (RLU) to normalize for transfection efficiency and cell growth. Fold activation was obtained by dividing the mean RLU of the test compound by the mean RLU of the untreated control. All samples were tested in at least three biologically independent experiments in duplicates. For dose-response curve fitting and calculation of EC50 values, the equation “[Agonist] vs. response -- Variable slope (four parameters)” was used in GraphPad Prism (version 7.00, GraphPad Software, La Jolla, CA, USA). Selectivity profiling was performed with identical procedures using pFA-CMV-Nur77-LBD[14], pFA-CMV-NOR-1-LBD[14], pFA-CMV-THRα-LBD[51], pFA-CMV-RARα-LBD[52], pFA-CMV-PPARα-LBD[53], pFA-CMV-PPARγ-LBD[53], pFA-CMV-PPARδ-LBD[53], pFA-CMV-LXRα-LBD[54], pFA-CMV-FXR-LBD[55] and pFA-CMV-hRXRα-LBD[56].
(Reporter assays use an easily measured gene product as a stand-in for the process of interest.)

A short description of another data set: Microsomal stability. Format: in vitro ADME, rat. To be noted: male, Sprague-Dawley, pH 7.4; rat liver microsomes, 10 µM, LCMS. The protocol:
To determine microsomal stability, test compounds (10 μM) were incubated in 100 mM potassium phosphate buffer at pH 7.4 (total volume of 100 µL) containing 0.5 mg/mL male rat liver microsomes (Sprague-Dawley, no. M9066, Merck KGaA, Darmstadt) and 1 mM NADPH for 0, 15, 30, or 60 min. At the end of the incubation time, microsomal activity was terminated by the addition of 500 µL MeCN and subsequent centrifugation at 1700 g for 5 min. A reaction mixture containing heat-inactivated microsomes (95 °C, 10 min) was prepared as a control for each compound. 5 µL supernatant of each sample was analyzed and the remaining concentrations of the respective test compounds at each time point were determined by LC-MS/MS on an API-3200-QTrap (Sciex) with an Agilent Technologies 1100 series setup including a binary pump (G1311A), a degasser (G1322A), and a Shimadzu SIL 20 A HT autosampler under the control of Analyst 1.6 (Sciex). A XBridge BEH C18 (3.5 µm, 150 mm×3 mm, Waters, protected with a 0.5 µm frit) stationary phase was used in combination with a gradient method starting with 0.1% formic acid in water (A) and MeCN (B) as mobile phase (A:B = 80:20) for 6 min going to A: B = 50:50 after 8 min. 5 µL of supernatant diluted in mobile phase starting conditions was loaded onto the column, separated at a flow rate of 400 µL/min, and detected and quantified per Area of MRM (multiple reaction monitoring) with the following transitions: m/z 381.797/145.000 (34); m/z 395.125/158.200 (36); m/z 409.822/131.000 (41); m/z 407.838/171.100 (42).
A general note: Liver microsomes are a subcellular fraction often used to study metabolism.

For another data set, the system named is Nurr1. Set-up: method as in PMID 33289551. To be noted: independent evaluation; cited from earlier work.

“And” between values parts separate entries of the source, which are not always exact repeats. Equal values may be shown once.

T1 sequence (P43354 360-595 limits assumed): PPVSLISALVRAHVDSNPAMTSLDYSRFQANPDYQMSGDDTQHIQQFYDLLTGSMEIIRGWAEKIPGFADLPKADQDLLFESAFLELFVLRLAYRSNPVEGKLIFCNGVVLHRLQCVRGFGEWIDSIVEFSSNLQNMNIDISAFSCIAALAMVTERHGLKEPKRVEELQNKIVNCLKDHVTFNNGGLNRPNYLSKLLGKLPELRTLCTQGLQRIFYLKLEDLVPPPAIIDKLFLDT

For the compound `Cc1nc2c(Cl)cccn2c1NC(=O)c1ccc(-c2ccc(OC3CC3)cc2)o1` [Compound 42, N-(8-Chloro-2-methylimidazo[1,2-a]pyridin-3-yl)-5-(4-cyclopropoxyphenyl)furan-2-carboxamide], the “logPe (PAMPA)” value in data set [1] was -5.857 and -5.822 and -5.789 and -5.846 and -5.806. In addition, the “logPe (BBB)” value in data set [2] was -5.049 and -5.059 and -4.946 and -5.046 and -4.96 and -4.965. Moreover, in data set [3], the EC50 (commonly the concentration needed to bring the measured effect to its halfway point) came to 120 ± 60 nM and the max. activation was determined as 1.5 ± 0.2 fold. Further, the half-life (usually the time needed for the level to fall by half in the phase considered) at 10 µM in the data set “Microsomal stability” came to 78 ± 7 min.
`CC(C)NCC(O)COc1cccc2ccccc12` (stereo not shown) [propranolol, reference compound]: the “logPe (PAMPA)” value in data set [1] was -5.096 and -5.109 and -5.101 and -5.087 and -5.042 and -5.07.
As for `O=C(Nc1ccccc1)c1cn2cc(-c3ccccn3)ccc2n1` [SR24237], in the data set on Nurr1, the “binding to Nurr1” value is listed as “no evidence for binding”.
On to `Cc1cc(=O)n(-c2ccccc2)n1C` [antipyrine, reference compound], for which the “logPe (BBB)” value in data set [2] is -4.6402 and -4.7739 and -4.62 and -4.578 and -4.647.
For the compound `COc1ccc(-c2ccc(C(=O)Nc3c(C)nc4c(Cl)cccn34)o2)cc1` [Compound 34], the “logPe (PAMPA)” value in data set [1] was -5.478 and -5.491 and -5.489 and -5.4212 and -5.4577. Also, in data set [3], the EC50 was determined as 160 ± 60 nM and the max. activation is on record as 1.7 ± 0.1 fold. For the same compound, the half-life at 10 µM in “Microsomal stability” is 18 ± 2 min.
As to `Cc1nc2c(Cl)cccn2c1NC(=O)c1ccc(-c2ccc(OC(C)C)cc2)o1` [Compound 41], the “logPe (PAMPA)” value in data set [1] was -5.684 and -5.708 and -5.674 and -5.7032 and -5.723 and -5.7183. For the same compound, in data set [3], the EC50 came to 120 ± 30 nM and the max. activation is recorded as 2.1 ± 0.2 fold. In “Microsomal stability”, the half-life at 10 µM is 42 ± 5 min.
